Assay results published in BindingDB's records for doi:10.1016/0014-2999(89)90363-4 (Novo Industri, 1989).
Where “and” joins values, the source holds several entries; their conditions need not be identical. Identical values can stand only once. Counter-ions that a name gives are not always drawn.

Legend:
D(2) dopamine receptor = D(2) dopamine receptor (Rattus norvegicus, UniProt P61169)
[1] = biological target: T1, 5-hydroxytryptamine receptor 1A (Rattus norvegicus, UniProt P19327)
T1 sequence (P19327 whole entry): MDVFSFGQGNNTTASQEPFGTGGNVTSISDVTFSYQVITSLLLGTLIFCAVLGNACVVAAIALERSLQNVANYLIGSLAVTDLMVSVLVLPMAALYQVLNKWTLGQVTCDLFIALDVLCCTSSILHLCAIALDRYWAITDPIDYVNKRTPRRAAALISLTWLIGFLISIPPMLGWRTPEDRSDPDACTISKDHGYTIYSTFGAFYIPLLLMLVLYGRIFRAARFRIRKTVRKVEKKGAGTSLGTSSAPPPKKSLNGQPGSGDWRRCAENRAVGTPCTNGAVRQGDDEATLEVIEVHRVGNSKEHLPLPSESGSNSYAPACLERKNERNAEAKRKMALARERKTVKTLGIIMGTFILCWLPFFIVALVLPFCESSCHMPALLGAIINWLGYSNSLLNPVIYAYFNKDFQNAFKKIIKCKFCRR

D(1A) dopamine receptor = D(1A) dopamine receptor (Rattus norvegicus, UniProt P18901)
D(1A) dopamine receptor, sequence (P18901 whole entry): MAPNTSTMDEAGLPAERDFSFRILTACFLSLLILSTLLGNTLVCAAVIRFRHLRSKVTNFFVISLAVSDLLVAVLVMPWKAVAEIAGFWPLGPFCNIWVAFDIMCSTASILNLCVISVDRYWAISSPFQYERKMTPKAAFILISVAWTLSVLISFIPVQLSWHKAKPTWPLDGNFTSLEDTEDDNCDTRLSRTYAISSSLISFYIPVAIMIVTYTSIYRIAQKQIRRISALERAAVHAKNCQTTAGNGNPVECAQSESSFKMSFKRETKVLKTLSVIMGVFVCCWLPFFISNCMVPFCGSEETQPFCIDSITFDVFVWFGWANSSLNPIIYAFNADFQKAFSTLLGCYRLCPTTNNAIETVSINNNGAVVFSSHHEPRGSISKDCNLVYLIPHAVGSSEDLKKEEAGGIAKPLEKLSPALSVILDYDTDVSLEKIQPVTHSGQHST

[2] = biological target: Gamma-aminobutyric acid receptor subunit alpha-1 (Rattus norvegicus, UniProt P62813)
Gamma-aminobutyric acid receptor subunit alpha-1, sequence (P62813 whole entry): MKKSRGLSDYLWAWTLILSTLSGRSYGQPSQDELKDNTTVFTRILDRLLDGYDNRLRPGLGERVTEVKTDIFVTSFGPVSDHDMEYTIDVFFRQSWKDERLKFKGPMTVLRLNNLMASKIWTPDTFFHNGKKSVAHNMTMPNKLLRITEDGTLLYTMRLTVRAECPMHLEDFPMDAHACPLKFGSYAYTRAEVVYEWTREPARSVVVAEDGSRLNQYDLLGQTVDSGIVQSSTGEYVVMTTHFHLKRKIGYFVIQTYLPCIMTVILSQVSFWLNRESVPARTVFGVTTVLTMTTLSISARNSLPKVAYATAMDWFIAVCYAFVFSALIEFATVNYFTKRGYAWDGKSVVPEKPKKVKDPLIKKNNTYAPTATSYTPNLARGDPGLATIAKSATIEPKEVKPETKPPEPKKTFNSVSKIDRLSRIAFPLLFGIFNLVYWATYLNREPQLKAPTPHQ

[3] = biological target: T2, Muscarinic acetylcholine receptor M2 (Rattus norvegicus, UniProt P10980)
T2 sequence (P10980 whole entry): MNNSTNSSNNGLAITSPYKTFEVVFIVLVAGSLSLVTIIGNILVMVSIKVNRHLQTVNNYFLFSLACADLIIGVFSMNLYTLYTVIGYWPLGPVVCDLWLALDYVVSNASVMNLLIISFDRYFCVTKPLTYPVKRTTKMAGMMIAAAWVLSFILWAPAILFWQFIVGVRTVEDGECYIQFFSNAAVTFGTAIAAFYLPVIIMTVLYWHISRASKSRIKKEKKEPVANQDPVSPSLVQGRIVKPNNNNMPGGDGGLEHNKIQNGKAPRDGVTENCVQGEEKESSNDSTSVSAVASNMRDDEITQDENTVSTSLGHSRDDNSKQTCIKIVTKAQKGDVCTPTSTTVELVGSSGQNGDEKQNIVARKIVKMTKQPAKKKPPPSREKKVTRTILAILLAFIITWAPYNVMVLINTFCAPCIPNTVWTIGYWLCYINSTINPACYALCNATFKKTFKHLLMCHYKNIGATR

[4] = biological target: T3, Alpha-1A adrenergic receptor (Rattus norvegicus, UniProt P43140)
T3 sequence (P43140 whole entry): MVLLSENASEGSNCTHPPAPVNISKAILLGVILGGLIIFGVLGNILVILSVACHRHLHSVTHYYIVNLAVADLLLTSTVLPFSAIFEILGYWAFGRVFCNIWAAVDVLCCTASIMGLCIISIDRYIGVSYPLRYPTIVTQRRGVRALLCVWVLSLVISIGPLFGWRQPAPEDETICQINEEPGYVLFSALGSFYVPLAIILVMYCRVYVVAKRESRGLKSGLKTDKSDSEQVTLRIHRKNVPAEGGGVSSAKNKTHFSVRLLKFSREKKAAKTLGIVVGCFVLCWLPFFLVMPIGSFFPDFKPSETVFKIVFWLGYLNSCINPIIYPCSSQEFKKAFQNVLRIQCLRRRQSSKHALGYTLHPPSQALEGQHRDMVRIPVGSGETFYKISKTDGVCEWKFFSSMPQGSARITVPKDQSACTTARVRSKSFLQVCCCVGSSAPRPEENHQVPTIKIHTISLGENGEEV

Histamine H1 receptor = Histamine H1 receptor (Rattus norvegicus, UniProt P31390)
Histamine H1 receptor, sequence (P31390 whole entry): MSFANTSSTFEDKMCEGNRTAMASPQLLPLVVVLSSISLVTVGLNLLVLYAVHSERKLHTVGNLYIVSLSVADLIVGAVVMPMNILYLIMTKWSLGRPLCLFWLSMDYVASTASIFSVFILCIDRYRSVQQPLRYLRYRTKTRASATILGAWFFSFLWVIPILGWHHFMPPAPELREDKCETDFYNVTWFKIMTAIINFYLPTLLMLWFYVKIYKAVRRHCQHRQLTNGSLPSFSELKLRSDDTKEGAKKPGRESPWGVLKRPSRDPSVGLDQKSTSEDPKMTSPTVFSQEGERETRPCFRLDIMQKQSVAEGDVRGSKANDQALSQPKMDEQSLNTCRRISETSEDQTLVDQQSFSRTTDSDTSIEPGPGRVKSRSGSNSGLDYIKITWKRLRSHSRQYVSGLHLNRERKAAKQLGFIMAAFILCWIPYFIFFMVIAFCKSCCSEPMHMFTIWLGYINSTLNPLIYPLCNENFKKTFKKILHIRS

[5] = biological target: Norepinephrine transporter (Rattus norvegicus, UniProt Q9JIA2)
[6] = biological target: T4, Alpha-2C adrenergic receptor (Rattus norvegicus, UniProt P22086)
T4 sequence (P22086 whole entry): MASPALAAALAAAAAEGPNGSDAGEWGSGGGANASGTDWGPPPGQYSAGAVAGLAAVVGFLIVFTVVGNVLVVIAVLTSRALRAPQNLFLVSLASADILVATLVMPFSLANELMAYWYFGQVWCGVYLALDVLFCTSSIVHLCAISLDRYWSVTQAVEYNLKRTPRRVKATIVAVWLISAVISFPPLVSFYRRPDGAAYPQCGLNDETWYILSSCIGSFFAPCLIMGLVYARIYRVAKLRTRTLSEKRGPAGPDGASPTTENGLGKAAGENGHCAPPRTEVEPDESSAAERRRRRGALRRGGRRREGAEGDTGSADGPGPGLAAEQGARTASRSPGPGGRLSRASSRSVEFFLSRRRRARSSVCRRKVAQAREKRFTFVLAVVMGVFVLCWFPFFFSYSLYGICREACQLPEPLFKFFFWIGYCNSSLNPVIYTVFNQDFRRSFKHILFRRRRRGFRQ

[7] = biological target: Beta-1 adrenergic receptor (Rattus norvegicus, UniProt P18090)
Beta-1 adrenergic receptor, sequence (P18090 whole entry): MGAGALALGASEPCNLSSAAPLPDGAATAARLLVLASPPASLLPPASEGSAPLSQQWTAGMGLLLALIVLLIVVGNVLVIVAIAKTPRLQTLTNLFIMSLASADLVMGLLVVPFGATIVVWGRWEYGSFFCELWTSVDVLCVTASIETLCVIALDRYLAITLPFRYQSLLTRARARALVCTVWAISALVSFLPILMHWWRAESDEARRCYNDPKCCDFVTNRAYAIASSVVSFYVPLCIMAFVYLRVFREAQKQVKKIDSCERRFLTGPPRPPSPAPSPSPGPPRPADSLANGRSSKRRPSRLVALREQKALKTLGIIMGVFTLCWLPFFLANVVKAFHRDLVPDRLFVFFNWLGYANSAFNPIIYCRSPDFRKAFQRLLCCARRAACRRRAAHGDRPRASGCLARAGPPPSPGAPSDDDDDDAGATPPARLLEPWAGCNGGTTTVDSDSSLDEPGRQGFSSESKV

[8] = biological target: Sodium-dependent serotonin transporter (Rattus norvegicus, UniProt P31652)
Sodium-dependent serotonin transporter, sequence (P31652 whole entry): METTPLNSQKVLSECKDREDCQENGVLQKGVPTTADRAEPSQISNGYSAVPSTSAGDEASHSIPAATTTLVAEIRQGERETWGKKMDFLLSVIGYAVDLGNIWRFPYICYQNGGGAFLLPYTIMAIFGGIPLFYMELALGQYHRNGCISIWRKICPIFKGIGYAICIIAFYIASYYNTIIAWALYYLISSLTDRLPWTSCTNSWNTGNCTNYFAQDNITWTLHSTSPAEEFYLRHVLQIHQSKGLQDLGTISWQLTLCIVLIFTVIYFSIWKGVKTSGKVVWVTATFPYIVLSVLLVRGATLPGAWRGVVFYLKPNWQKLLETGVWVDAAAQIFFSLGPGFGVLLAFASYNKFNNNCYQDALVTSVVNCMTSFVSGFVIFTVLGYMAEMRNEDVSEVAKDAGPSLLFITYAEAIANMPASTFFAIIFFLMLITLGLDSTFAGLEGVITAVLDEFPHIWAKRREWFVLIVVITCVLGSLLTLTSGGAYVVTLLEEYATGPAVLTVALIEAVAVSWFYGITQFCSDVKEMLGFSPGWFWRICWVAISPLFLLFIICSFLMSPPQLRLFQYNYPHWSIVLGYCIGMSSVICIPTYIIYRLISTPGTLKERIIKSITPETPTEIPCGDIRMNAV

[9] = biological target: 5-hydroxytryptamine receptor 2A (Rattus norvegicus, UniProt P14842)
5-hydroxytryptamine receptor 2A, sequence (P14842 whole entry): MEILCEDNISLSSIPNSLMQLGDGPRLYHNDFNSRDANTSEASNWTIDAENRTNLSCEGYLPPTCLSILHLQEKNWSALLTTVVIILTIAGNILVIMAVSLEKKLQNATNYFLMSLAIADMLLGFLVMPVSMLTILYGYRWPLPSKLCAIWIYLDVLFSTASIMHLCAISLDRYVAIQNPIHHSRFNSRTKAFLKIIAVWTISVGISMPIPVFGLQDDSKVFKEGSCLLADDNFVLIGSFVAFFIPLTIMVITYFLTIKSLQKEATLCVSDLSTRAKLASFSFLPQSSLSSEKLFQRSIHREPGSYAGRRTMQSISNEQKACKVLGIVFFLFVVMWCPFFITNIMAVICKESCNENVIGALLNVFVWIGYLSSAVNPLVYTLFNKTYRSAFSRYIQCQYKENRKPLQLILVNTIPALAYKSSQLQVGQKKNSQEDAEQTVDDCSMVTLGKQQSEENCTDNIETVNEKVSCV

D(2) dopamine receptor, sequence (P61169 whole entry): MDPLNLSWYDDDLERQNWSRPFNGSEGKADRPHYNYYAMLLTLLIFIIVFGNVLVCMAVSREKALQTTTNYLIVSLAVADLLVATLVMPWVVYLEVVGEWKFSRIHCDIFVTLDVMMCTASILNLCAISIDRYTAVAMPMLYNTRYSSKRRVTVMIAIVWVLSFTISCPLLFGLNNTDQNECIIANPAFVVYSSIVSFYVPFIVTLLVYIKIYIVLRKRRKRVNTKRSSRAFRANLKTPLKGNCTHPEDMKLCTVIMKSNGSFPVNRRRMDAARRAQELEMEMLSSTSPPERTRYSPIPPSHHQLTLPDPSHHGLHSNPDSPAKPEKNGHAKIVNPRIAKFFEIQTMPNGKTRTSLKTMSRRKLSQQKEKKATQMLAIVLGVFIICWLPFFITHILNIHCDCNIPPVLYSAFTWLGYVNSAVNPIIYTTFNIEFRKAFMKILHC

Compound | Ki (D(2) dopamine receptor) | Ki [1] | Ki (D(1A) dopamine receptor) | Ki [2] | Ki [3] | Ki [4] | Ki (Histamine H1 receptor) | Ki [5] | Ki [6] | Ki [7] | Ki [8] | Ki [9]
CN1Cc2c(N)cccc2[C@H](c2ccccc2)C1 [(+/-)-2-Methyl-4-phenyl-1,2,3,4-tetrahydro-isoquinolin-8-ylamine] | > 10 µM | > 10 µM | > 10 µM | > 10 µM | > 10 µM | > 10 µM | 0.035 µM | 0.0112 µM | > 10 µM | > 10 µM |  | 
C[C@H](N)Cc1ccccc1 [beta-aminopropylbenzene] |  |  |  |  |  |  |  | 0.059 µM and 0.058 µM |  |  |  | 
NCC(O)c1ccc(O)c(O)c1 (stereo not drawn) [Noradrenaline,(+)] |  |  |  |  |  |  |  | 0.25 µM |  |  | 1 µM | 
O[C@]1(c2ccc(Cl)cc2)c2ccccc2C2=NCCN21 [Mazanor] |  |  |  |  |  |  |  | 0.008 µM |  |  |  | 
CC(NC(C)(C)C)C(=O)c1cccc(Cl)c1 (stereo not drawn) [BUPROPION HYDROCHLORIDE] | > 10 µM |  | > 10 µM |  | > 10 µM | > 10 µM |  | 0.94 µM | > 10 µM | > 10 µM |  | 
COc1ccc2c(c1)CN(C)CC2c1ccc(Cl)c(Cl)c1 (stereo not drawn) |  |  |  |  |  |  |  | 0.0157 µM |  |  |  | 
COC(=O)[C@@H](c1ccccc1)[C@@H]1CCCCN1 |  |  |  |  |  |  |  | 0.103 µM |  |  | 1 µM | 
CN(C)CCCN1c2ccccc2CCc2ccccc21 | 0.942 µM | > 10 µM | 3 µM | > 10 µM | 2.3 µM |  | 0.002 µM |  | 5.7 µM | > 10 µM |  | 
Fc1ccc(C(OCCN2CCN(CCCc3ccccc3)CC2)c2ccc(F)cc2)cc1 [Vanoxerine] | 0.27 µM | 3.6 µM | 1 µM | > 10 µM and 8 µM | > 10 µM | 3.5 µM | 0.018 µM |  | 7 µM | > 10 µM |  | 0.189 µM
NCCc1ccc(O)c(O)c1 |  |  |  |  |  |  |  | 1 µM |  |  | 1 µM | 
NCCc1c[nH]c2ccc(O)cc12 [[3H]-5-HT] |  |  |  |  |  |  |  | 1 µM |  |  |  | 
CN(C)CCCC1(c2ccc(F)cc2)OCc2cc(C#N)ccc21 (stereo not drawn) [CITALOPRAM HYDROBROMIDE] | > 10 µM | > 10 µM | > 10 µM | > 10 µM | > 10 µM | > 10 µM |  |  | > 10 µM | > 10 µM |  | 
